For this assay, the system named is HCV pseudoparticles, genotype 1a (H77C) E1 and E2 envelope glycoproteins. The assay can be described thus: HCV pseudoparticle infection assay (luciferase reporter, Huh7 cells). In kind it is cell-based. The note with it: Hepatitis C virus, Huh-7, 48 h, read-out: EC50 (nM) 1a (H77C), HCV pseudoparticles genotype 1a (H77C), Huh7 cells, luciferase 2 days after infection. A general note: In a reporter assay the amount or activity of a reporter protein is the signal.

Like-named read-outs stand apart in the source and are kept apart here.

Turning to `NC(=O)C(=O)N1CCC2(CCN(C(=O)c3ccc(Nc4nc(NC5(c6ccc(Cl)cc6)CC5)nc(OCC(F)(F)F)n4)cc3)C2)C1` (stereo not drawn) [Compound 1001], the EC50 (as a rule, the midpoint of the concentration-response curve) is, setting by setting: (class symbol) 0.01 to 10 nM; (numeric value) 1.64 nM. For the compound `O=C(Nc1cccc(F)c1)C(=O)N1CCC2(CCN(C(=O)c3ccc(Nc4nc(NC5(c6ccc(Cl)cc6)CC5)nc(OCC(F)(F)F)n4)cc3)C2)C1` (stereo not drawn) [Compound 1002], the concentration giving a half-maximal response (EC50) (class symbol) lay in the range of 0.01 to 10 nM. As for `O=C(Nc1ccc(F)cc1)C(=O)N1CCC2(CCN(C(=O)c3ccc(Nc4nc(NC5(c6ccc(Cl)cc6)CC5)nc(OCC(F)(F)F)n4)cc3)C2)C1` (stereo not drawn) [Compound 1003], the EC50 (class symbol) lay within 0.01 to 10 nM.

Take `Cc1cc(NC(=O)C(=O)N2CCC3(CCN(C(=O)c4ccc(Nc5nc(NC6(c7ccc(Cl)cc7)CC6)nc(OCC(F)(F)F)n5)cc4)C3)C2)no1` (stereo not drawn) [Compound 1004]: for the setting “class symbol”, the 50% effective concentration (EC50) lay in the range of 0.01 to 10 nM. For `O=C(Nc1ccccc1)C(=O)N1CCC2(CCN(C(=O)c3ccc(Nc4nc(NC5(c6ccc(Cl)cc6)CC5)nc(OCC(F)(F)F)n4)cc3)C2)C1` (stereo not drawn) [Compound 1005], the EC50 (class symbol) was in the range of 0.01 to 10 nM.

Take `O=C(NCc1ccc(F)cc1)C(=O)N1CCC2(CCN(C(=O)c3ccc(Nc4nc(NC5(c6ccc(Cl)cc6)CC5)nc(OCC(F)(F)F)n4)cc3)C2)C1` (stereo not drawn) [Compound 1006]: under “class symbol”, the EC50 was in the range of 0.01 to 10 nM.

Regarding `Cc1ccc(NC(=O)C(=O)N2CCC3(CCN(C(=O)c4ccc(Nc5nc(NC6(c7ccc(Cl)cc7)CC6)nc(OCC(F)(F)F)n5)cc4)C3)C2)cc1` (stereo not drawn) [Compound 1007], the EC50 is, setting by setting: (class symbol) 0.01 to 10 nM; (numeric value) 0.255 nM.

As for `O=C(Nc1ccc(F)cc1F)C(=O)N1CCC2(CCN(C(=O)c3ccc(Nc4nc(NC5(c6ccc(Cl)cc6)CC5)nc(OCC(F)(F)F)n4)cc3)C2)C1` (stereo not drawn) [Compound 1008], under “class symbol”, the EC50 fell in the range of 0.01 to 10 nM. Same read-out and setting: the same measure for `O=C(Nc1cc(F)cc(F)c1)C(=O)N1CCC2(CCN(C(=O)c3ccc(Nc4nc(NC5(c6ccc(Cl)cc6)CC5)nc(OCC(F)(F)F)n4)cc3)C2)C1` (stereo not drawn) [Compound 1009]: 0.01 to 10 nM; for `O=C(NC1CCCCC1)C(=O)N1CCC2(CCN(C(=O)c3ccc(Nc4nc(NC5(c6ccc(Cl)cc6)CC5)nc(OCC(F)(F)F)n4)cc3)C2)C1` (stereo not drawn) [Compound 1010]: 0.01 to 10 nM; for `O=C(C(=O)N1CCC2(CCN(C(=O)c3ccc(Nc4nc(NC5(c6ccc(Cl)cc6)CC5)nc(OCC(F)(F)F)n4)cc3)C2)C1)N1CCCCC1` (stereo not drawn) [Compound 1011]: 0.01 to 10 nM. Still for that read-out and setting: the same measure for `O=C(Nc1nccs1)C(=O)N1CCC2(CCN(C(=O)c3ccc(Nc4nc(NC5(c6ccc(Cl)cc6)CC5)nc(OCC(F)(F)F)n4)cc3)C2)C1` (stereo not drawn) [Compound 1012]: 0.01 to 10 nM. Regarding `O=C(C(=O)N1CCC2(CCN(C(=O)c3ccc(Nc4nc(NC5(c6ccc(Cl)cc6)CC5)nc(OCC(F)(F)F)n4)cc3)C2)C1)N1CCc2ccccc2C1` (stereo not drawn) [Compound 1013], the EC50 (class symbol) was 0.01 to 10 nM and the EC50 (numeric value) worked out at 4.86 nM. With `CC(C)CNC(=O)C(=O)N1CCC2(CCN(C(=O)c3ccc(Nc4nc(NC5(c6ccc(Cl)cc6)CC5)nc(OCC(F)(F)F)n4)cc3)C2)C1` (stereo not drawn) [Compound 1014], the EC50 (class symbol) lay in the range of 0.01 to 10 nM. Turning to `Cc1nnc(NC(=O)C(=O)N2CCC3(CCN(C(=O)c4ccc(Nc5nc(NC6(c7ccc(Cl)cc7)CC6)nc(OCC(F)(F)F)n5)cc4)C3)C2)s1` (stereo not drawn) [Compound 1015], the EC50 (class symbol) was in the range of 0.01 to 10 nM.
